From patent US20260176274A1, “ENAMINE N-OXIDE TOOLS FOR TARGET IDENTIFICATION APPLICATIONS” (DANA-FARBER CANCER INSTITUTE, INC., priority 2022, published 2026)

How the values were obtained:
BRD4 = molecular target: T1, BRD4 (Homo sapiens, UniProt O60885); assay: In cellulo BARS labeling in live HEK293T cells, immunoblot against BRD4; type: cell-based; conditions: probe 5 μM, B2(OH)4 100 μM 10 min
T1 construct: In Cellulo BARS Labeling of Endogenous Target Proteins; endogenous in cells; host or cells: HEK293T
Procedure: HEK293T cells were cultured in DMEM containing 10% FBS (Sigma), 100 units/mL penicillin, and 0.1 mg/mL streptomycin (Sigma) in a humidified chamber at 37° C. under an ambient atmosphere with 5% CO2. After culturing to >80% confluency in 150 mm plates, the plates were removed from the incubator, the media was aspirated, and the cells were trypsinized at 37° C. with 0.25% trypsin, 0.1% EDTA in HBSS (3 mL). After 3 min, complete growth medium (7 mL) was added to the detached cells, and the cell suspension was transferred to a 50 mL centrifuge tube. Cells were pelleted (400×g, 4 min, 23° C.) and washed with 2×20 mL PBS, pH 7.4. At this point, the density of the cell suspension in PBS was determined by the trypan blue exclusion method. The cells were pelleted once more, and the volume of PBS was adjusted to produce a cell suspension with a final density of 2×10^7 cells/mL. The cell suspension was aliquoted into 2 mL microcentrifuge tubes (3×1 mL, 2×10^7 cells each). […] Competitor 21′ (50 μM final concentration, from a 500 mM stock in DMSO) was also added to the third tube. The samples were incubated at 37° C. with end-over-end rotation. After 2 h of incubation, the cells were pelleted (400×g, 4 min, 23° C.) and washed once with PBS, pH 7.4.

BRD2/3/4 [1] = molecular target: T2, BRD2/3/4 (Homo sapiens, UniProt O60885); assay: Pulldown-MS chemoproteomics in HEK293T cell lysate, (+)-JQ1 probe; type: binding; conditions: filter 3 quantified peptides in 3 replicates
T2 construct: In Vitro BARS Labeling of Endogenous Target Proteins in Cell Lysate; endogenous in cells; host or cells: HEK293T lysate
Procedure: (§1) The same procedure as the “Streptavidin pull-down” was followed up to the wash steps. After the final wash, the supernatant was completely removed. Formamide elution buffer (95% v/v formamide, 5% v/v 100 mM sodium acetate, pH 10, 50 μL) was then added to the beads with gentle mixing. The beads were heated to 95° C. for 10 min, pelleted, and the supernatant was removed while hot and then allowed to cool to rt. The formamide elution was repeated a second time for a combined eluate volume of approximately 100 μL. The eluate samples were then submitted to the Dana-Farber TPD Core facility for further processing. […]
(§2) Peptides were analyzed on an Ultimate™ 3000 RSLCnano system coupled to a Tribrid series mass spectrometer (Thermo Fisher Scientific™). […]
(§3) RAW file processing, false discovery rate filtering (<1%), and protein roll-up and MS1 intensity-based label-free quantification (Minora algorithm) were achieved using Proteome Discoverer 2.5 (Thermo Fisher Scientific™). […] Peptides were quantified by precursor ion abundance and summed across proteins.
(§4) Proteins were filtered to include those with three or more unique peptides quantified across four replicate treatments, unless otherwise stated. […] All peptides of target proteins quantified at the single peptide level were manually inspected to ensure accuracy in quantification.

BRD2/3/4 [2] = assay: as above; type: binding, human; conditions: filter 1 quantified peptide in 3 replicates; against competitor or enantiomer controls
Procedure: as §1, §2, §3, §4

C#CCCC[N+](C)([O-])/C(Br)=C/C(Cl)CCCC(=O)NCCCCCCNC(=O)C[C@@H]1N=C(c2ccc(Cl)cc2)c2c(sc(C)c2C)-n2c(C)nnc21 (stereo partly drawn) [22′a, (Z)-1-Bromo-3-chloro-7-((6-(2-((S)-4-(4-chlorophenyl)-2,3,9-trimethyl-6H-thieno[3,2-f][1,2,4]triazolo[4,3-al][1,4]diazepin-6-yl)acetamido)hexyl)amino)-N-methyl-7-oxo-N-(pent-4-yn-1-yl)hept-1-en-1-amine oxide]
target identification in live HEK293T cells (BRD4) (BRD4): successfully executed | chemoproteomics protein identified (BRD2/3/4 [1]): BRD4 was identified | chemoproteomics hits (BRD2/3/4 [2]): BRD2/3/4 were identified as hits
